Measurements published in PMC3241856 (ACS chemical biology, 2011).

Molecular target: mu opioid receptor (MOR) (Rattus norvegicus, UniProt P33535)
Experiment: Stimulation of [35S]GTPγS binding, C6-MOR membranes
Assay type: biochemical
Details: 10 μM peptide compared to 10 μM DAMGO

mu opioid receptor (MOR), sequence (P33535 whole entry): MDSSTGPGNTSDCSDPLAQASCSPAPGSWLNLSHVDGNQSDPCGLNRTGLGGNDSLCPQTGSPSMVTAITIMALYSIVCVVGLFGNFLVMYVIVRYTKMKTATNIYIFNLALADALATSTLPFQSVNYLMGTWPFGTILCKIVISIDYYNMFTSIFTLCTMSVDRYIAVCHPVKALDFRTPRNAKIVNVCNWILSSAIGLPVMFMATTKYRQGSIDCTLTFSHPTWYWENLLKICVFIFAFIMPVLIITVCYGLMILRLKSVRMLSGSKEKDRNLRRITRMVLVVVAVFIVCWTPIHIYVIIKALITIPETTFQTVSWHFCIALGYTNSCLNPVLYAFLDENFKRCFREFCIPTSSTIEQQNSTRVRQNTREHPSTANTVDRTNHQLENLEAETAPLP

SMILES: NC(=O)[C@H](Cc1ccccc1)NC(=O)[C@H](Cc1ccccc1)NC(=O)[C@@H]1CCCN1C(=O)[C@@H](N)Cc1ccc(O)cc1 [endomorphin-2]
- MOR % max. stimulation of [35S]GTPγS binding: 49 ± 7%
